Data on 16 compounds can be found in patent publication US20260125346A1, “Isoquinolinone Derivatives and 4H-Quinolizinone Derivatives and Pharmaceutical Compositions Thereof for the Treatment of Disease” (BeOne Medicines I GmbH, priority 2023, published 2026).

For experiment [1], the system named is PI3Kα H1047R mutated cell line T-47D. Description: Phospho-AKT (Ser473) Inhibition Assay (HTRF), T-47D. The format is cell-based. Particulars: for IC50: Homo sapiens, T47D, T-47D, 1 hour treatment, read-out: p-AKT Inhibition assay (S473) IC50 T-47D; for Selectivity: SK-BR-3/T-47D (p-AKT): p-AKT (S473) IC50 ratio. The protocol:
Cell Culture Maintenance. The T-47D (ATCC, HTB-133) cell line was obtained from the American Type Culture Collection. Cells were maintained in RPMI1640 medium (Gibco, REF #22400105) supplemented with 10% Fetal Bovine Serum (Gibco, REF #10091148). Cultures were maintained in a humidified incubator at 37° C. under 5% CO2/95% air.
Phospho-AKT Inhibition Assay. HTRF Phospho-AKT (Ser473) detection kit (Cisbio, REF #64AKSPEH) was used in phosphor-AKT inhibition assay. For compound screening, PI3Kα H1047R mutated cell line T-47D and WT cell line SK-BR-3 cells were seeded at a density of 3×10^4 cells per well in 96 well plate (Costar, REF #3599) in 95 μL of assay medium (MEM medium (Gibco, REF #12561-056) with 1×NEAA (Gibco, REF #11140-050), 1 mM sodium pyruvate (Gibco, REF #11360-070), and 1 g/ml human insulin (Topscience, REF #T8221)), overnight. Compounds dissolved in 10 mM stock solutions in DMSO were serially diluted 1:3 in DMSO to generate an 11-point dilution series and plated using an INTEGRA ASSIST PLUS pipetting robot. A 20× intermediate compound dilution plate in RPMI1640 medium (200 M starting compound concentration in 2% DMSO) was then prepared. Five μL of intermediate serially diluted compounds were added to the cell plate to final concentrations ranging from […] to 0.1 nM in 0.1% DMSO. 0.1% DMSO alone was used to establish the maximum signal and GDC0077 at final concentration of 10 μM was used as a reference compound for minimum signal. After 1 hour treatment, removed medium and added 50 μL of supplemented lysis buffer (1×) immediately. Incubated for at least 30 minutes at room temperature under shaking. Transferred 16 μL of cell lysate from the 96-well cell-culture plate to a 384-white detection plate (PerkinElmer, Optiplate 384, 6007299). Added 4 μL of premixed antibody solutions prepared in the detection buffer. Incubated 4 hours at room temperature in dark. The plates were read on PHERAstar FSX Microplate reader (BMG LABTECH, Inc.) using standard HTRF settings.
Relative IC50 values were determined using luminescence units by calculating percent inhibition with respect to the in-plate “MIN” (GDC0077 reference control) and “MAX” (DMSO) controls. The data were analyzed using a 4-parameter nonlinear logistic equation (four-parameter logistic concentration-response curve): Y=bottom+[(top−bottom)/1+(X/IC50) slope] • where Y=% inhibition, X=concentration of inhibitor, bottom=minimum value of y attained by curve-fit, top=maximum value of y attained by curve-fit and slope=steepness of curve at the IC50.
(In general: In TR-FRET formats the signal depends on donor and acceptor labels being close together.)

In experiment [2] the target is PI3Kα (p110[H1047R]/p85) kinase (Homo sapiens, UniProt P42336, H1047R). Put plainly: PI3Kα (p110[H1047R]/p85) kinase ADP-Glo Assay. The format is biochemical. Particulars: 25 uM ATP; for selectivity: WT/H1047R: ADP-Glo Assay IC50 ratio. The method, then:
PI3Kα (p110[H1047R]/p85) kinase ADP-Glo Assay. Certain compounds disclosed herein were tested for inhibition of PI3Kα (p110[H1047R]/p85) kinase in assays based on the ADP-Glo™ Kinase Assay methodology. The assays were carried out in 384-well white plates in a reaction mixture containing PI3Kα (p110[H1047R]/p85) kinase, 25 µM ATP, 5.35 µg/ml PI(4,5)P2:PS Lipid Kinase Substrate and […] compound in buffer containing 50 mM HEPES pH7.5, 50 mM NaCl, 3 mM MgCl2, 0.0025% BSA and 2 mM DTT. PI3Kα (p110[H1047R]/p85) kinase was incubated with Lipid Kinase Substrate and compound for 30 minutes at room temperature and the reaction was initiated by the addition of ATP.
After reaction at room temperature for 120 minutes, ADP-Glo™ reagents were added to terminate the kinase reaction and deplete the remaining ATP according to the manufacture's instruction (Promega Corporation). After incubation at room temperature for 1 hour, Kinase Detection Reagent (prepared by reconstituting the lyophilized Kinase Detection Substrate with Kinase Detection Buffer of the kit) was added to convert the ADP to ATP and to allow for the newly synthesized ATP to be measured using a luciferase/luciferin reaction. After incubation at room temperature for 0.5 hour, chemiluminescence signals were recorded on a PHERAstar FSX plate reader (BMG Labtech). The chemiluminescence generated in this assay correlates to the amount of ADP generated in the kinase assay, indicating kinase activity. […] The IC50 for each compound was derived from fitting the data to the four-parameter logistic equation by Dotmatics.

Sequence of PI3Kα (p110[H1047R]/p85) kinase (P42336 whole entry H1047R): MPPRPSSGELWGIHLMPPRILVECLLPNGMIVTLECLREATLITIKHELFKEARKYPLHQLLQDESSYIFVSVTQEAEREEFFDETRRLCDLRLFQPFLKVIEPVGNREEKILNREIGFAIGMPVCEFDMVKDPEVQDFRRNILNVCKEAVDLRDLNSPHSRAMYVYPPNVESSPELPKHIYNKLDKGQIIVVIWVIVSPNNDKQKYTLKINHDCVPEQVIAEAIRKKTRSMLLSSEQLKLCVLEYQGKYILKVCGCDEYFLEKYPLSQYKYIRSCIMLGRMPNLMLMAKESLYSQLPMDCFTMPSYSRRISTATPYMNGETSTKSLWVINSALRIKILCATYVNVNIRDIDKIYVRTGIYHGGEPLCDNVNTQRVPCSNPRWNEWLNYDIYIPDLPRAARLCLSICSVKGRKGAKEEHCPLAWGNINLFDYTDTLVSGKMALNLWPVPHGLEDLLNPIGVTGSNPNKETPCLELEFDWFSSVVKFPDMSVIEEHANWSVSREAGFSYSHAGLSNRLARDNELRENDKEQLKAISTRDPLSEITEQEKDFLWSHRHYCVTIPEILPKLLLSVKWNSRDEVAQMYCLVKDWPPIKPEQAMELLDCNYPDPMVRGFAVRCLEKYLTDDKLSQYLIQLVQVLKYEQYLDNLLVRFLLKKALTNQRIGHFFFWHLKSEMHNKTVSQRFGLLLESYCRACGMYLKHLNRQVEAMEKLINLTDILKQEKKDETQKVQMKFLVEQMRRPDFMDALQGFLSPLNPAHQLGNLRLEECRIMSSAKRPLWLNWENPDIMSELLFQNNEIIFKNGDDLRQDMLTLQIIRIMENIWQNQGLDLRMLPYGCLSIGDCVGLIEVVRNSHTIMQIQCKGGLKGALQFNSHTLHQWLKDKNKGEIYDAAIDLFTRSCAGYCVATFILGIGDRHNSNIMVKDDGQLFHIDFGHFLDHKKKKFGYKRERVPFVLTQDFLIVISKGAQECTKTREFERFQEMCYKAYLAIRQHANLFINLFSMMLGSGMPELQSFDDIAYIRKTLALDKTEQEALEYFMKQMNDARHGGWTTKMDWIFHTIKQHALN
Sequence of PI3Kα (p110[H1047R]/p85) kinase (P27986 whole entry partner): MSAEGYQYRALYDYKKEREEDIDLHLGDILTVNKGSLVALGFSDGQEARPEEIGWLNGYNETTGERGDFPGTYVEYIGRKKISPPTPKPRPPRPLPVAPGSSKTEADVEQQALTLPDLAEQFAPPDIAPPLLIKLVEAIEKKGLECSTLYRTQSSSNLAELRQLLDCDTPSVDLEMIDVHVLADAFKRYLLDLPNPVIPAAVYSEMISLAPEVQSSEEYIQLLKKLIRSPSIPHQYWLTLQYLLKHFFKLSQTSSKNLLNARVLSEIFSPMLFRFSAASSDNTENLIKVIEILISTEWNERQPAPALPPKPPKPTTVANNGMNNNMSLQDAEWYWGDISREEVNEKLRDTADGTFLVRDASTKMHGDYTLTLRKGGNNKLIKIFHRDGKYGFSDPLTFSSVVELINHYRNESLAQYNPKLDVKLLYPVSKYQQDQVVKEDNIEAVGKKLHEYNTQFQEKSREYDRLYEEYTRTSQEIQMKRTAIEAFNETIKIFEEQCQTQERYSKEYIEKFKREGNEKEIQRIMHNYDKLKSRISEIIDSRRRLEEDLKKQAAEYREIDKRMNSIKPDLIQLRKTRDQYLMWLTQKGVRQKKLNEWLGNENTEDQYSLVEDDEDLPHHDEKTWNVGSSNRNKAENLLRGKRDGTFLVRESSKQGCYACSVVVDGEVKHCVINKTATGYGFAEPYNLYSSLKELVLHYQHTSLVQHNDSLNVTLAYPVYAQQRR

What is called IC50 is the midpoint of a concentration-inhibition curve. For the compound `Cc1cc(C(C)Nc2ccccc2C(=O)O)c2cc(-c3ccccc3)n(C)c(=O)c2c1` (stereo not shown) [Example 1, 2-((1-(2,7-dimethyl-1-oxo-3-phenyl-1,2-dihydroisoquinolin-5-yl)ethyl)amino)benzoic acid], in experiment [1], the half-inhibitory concentration (IC50) amounted to 43.5 nM and the “Selectivity: SK-BR-3/T-47D (p-AKT)” value stood at 48.6. In experiment [2], it took 170 nM to reach half-maximal inhibition (IC50) and the “selectivity: WT/H1047R” value was 16.3.
Turning to `Cc1cc(C(C)Nc2ccccc2C(=O)O)c2cc(-c3ccccc3C)n(C)c(=O)c2c1` (stereo not shown) [Example 2, 2-((1-(2,7-dimethyl-1-oxo-3-(o-tolyl)-1,2-dihydroisoquinolin-5-yl)ethyl)amino)benzoic acid], in experiment [1], the IC50 came to 66.3 nM and the “Selectivity: SK-BR-3/T-47D (p-AKT)” value was 43.0. In experiment [2], the IC50 was 161 nM and the “selectivity: WT/H1047R” value came to 139.3.
Regarding `Cc1cc(C(C)Nc2ccccc2C(=O)O)c2cc(-c3cccc(C#N)c3)n(C)c(=O)c2c1` (stereo not shown) [Example 3, 2-((1-(3-(3-cyanophenyl)-2,7-dimethyl-1-oxo-1,2-dihydroisoquinolin-5-yl)ethyl)amino)benzoic acid], in experiment [1], the IC50 is 168 nM and the “Selectivity: SK-BR-3/T-47D (p-AKT)” value amounted to 26.0. In experiment [2], 671 nM corresponded to half-maximal inhibition (IC50) and the “selectivity: WT/H1047R” value came out at 14.7.
In the same order, the values of `Cc1cc(C(C)Nc2ccccc2C(=O)O)c2cc(-c3cccc(C(C)(C)C#N)c3)n(C)c(=O)c2c1` (stereo not shown) [Example 5, 2-((1-(3-(3-(2-cyanopropan-2-yl)phenyl)-2,7-dimethyl-1-oxo-1,2-dihydroisoquinolin-5-yl)ethyl)amino)benzoic acid] are 135 nM, 34.3, 375 nM and 14.1.
In the same order, the values of `Cc1cc(C(C)Nc2ccccc2C(=O)O)c2cc(-c3ccccc3F)n(C)c(=O)c2c1` (stereo not shown) [Example 6, 2-((1-(3-(2-fluorophenyl)-2,7-dimethyl-1-oxo-1,2-dihydroisoquinolin-5-yl)ethyl)amino)benzoic acid] are 62.4 nM, 51.5, 162 nM and 17.8.
As to `Cc1cc(C(C)Nc2ccccc2C(=O)O)c2cc(-c3cccc(F)c3)n(C)c(=O)c2c1` (stereo not shown) [Example 7, 2-((1-(3-(3-fluorophenyl)-2,7-dimethyl-1-oxo-1,2-dihydroisoquinolin-5-yl)ethyl)amino)benzoic acid], in experiment [1], the IC50 came to 53.9 nM and the “Selectivity: SK-BR-3/T-47D (p-AKT)” value stood at 34.5. Besides, in experiment [2], half-maximal inhibition (IC50) was put at 164 nM and the “selectivity: WT/H1047R” value came to 15.3.
Turning to `Cc1cc(C(C)Nc2ccccc2C(=O)O)c2cc(-c3ccc(F)cc3)n(C)c(=O)c2c1` (stereo not shown) [Example 8, 2-((1-(3-(4-fluorophenyl)-2,7-dimethyl-1-oxo-1,2-dihydroisoquinolin-5-yl)ethyl)amino)benzoic acid], in experiment [1], the IC50 amounted to 66.4 nM and the “Selectivity: SK-BR-3/T-47D (p-AKT)” value is 37.7. In experiment [2], the IC50 is 183 nM and the “selectivity: WT/H1047R” value amounted to 32.6.
In the same order, the values of `Cc1cc(C(C)Nc2ccccc2C(=O)O)c2cc(-c3ccc(F)c(F)c3)n(C)c(=O)c2c1` (stereo not shown) [Example 9, 2-((1-(3-(3,4-difluorophenyl)-2,7-dimethyl-1-oxo-1,2-dihydroisoquinolin-5-yl)ethyl)amino)benzoic acid] are 70.9 nM, 51.4, 187 nM and 14.5.
For `Cc1cc(C(C)Nc2ccccc2C(=O)O)c2cc(-c3cc(F)cc(F)c3)n(C)c(=O)c2c1` (stereo not shown) [Example 10, 2-((1-(3-(3,5-difluorophenyl)-2,7-dimethyl-1-oxo-1,2-dihydroisoquinolin-5-yl)ethyl)amino)benzoic acid], in experiment [1], the IC50 was determined as 82 nM and the “Selectivity: SK-BR-3/T-47D (p-AKT)” value is 33.3. Further, in experiment [2], the IC50 was 224 nM and the “selectivity: WT/H1047R” value is listed as 36.1.
The like results for `Cc1cc(C(C)Nc2ccccc2C(=O)O)c2cc(-c3ccc(F)cc3F)n(C)c(=O)c2c1` (stereo not shown) [Example 11, 2-((1-(3-(2,4-difluorophenyl)-2,7-dimethyl-1-oxo-1,2-dihydroisoquinolin-5-yl)ethyl)amino)benzoic acid] were, in that order, 80.2 nM, >125, 210 nM and 100.2.
In the same order, the values of `Cc1cc(C(C)Nc2ccccc2C(=O)O)c2cc(-c3cccc(F)c3F)n(C)c(=O)c2c1` (stereo not shown) [Example 12, 2-((1-(3-(2,3-difluorophenyl)-2,7-dimethyl-1-oxo-1,2-dihydroisoquinolin-5-yl)ethyl)amino)benzoic acid] are 55.3 nM, 39.0, 175 nM and 38.2.
In the same order, the values of `COc1cccc(-c2cc3c(C(C)Nc4ccccc4C(=O)O)cc(C)cc3c(=O)n2C)c1` (stereo not shown) [Example 13, 2-((1-(3-(3-methoxyphenyl)-2,7-dimethyl-1-oxo-1,2-dihydroisoquinolin-5-yl)ethyl)amino)benzoic acid] are 64 nM, 56.1, 192 nM and 30.3.
Consider `COc1ccc(-c2cc3c(C(C)Nc4ccccc4C(=O)O)cc(C)cc3c(=O)n2C)cc1` (stereo not shown) [Example 14, 2-((1-(3-(4-methoxyphenyl)-2,7-dimethyl-1-oxo-1,2-dihydroisoquinolin-5-yl)ethyl)amino)benzoic acid], for which, in experiment [1], the IC50 worked out at 63.2 nM and the “Selectivity: SK-BR-3/T-47D (p-AKT)” value was determined as 32.5. In addition, in experiment [2], the IC50 amounted to 156 nM and the “selectivity: WT/H1047R” value is listed as 23.9.
For `COc1ccc(-c2cc3c(C(C)Nc4ccccc4C(=O)O)cc(C)cc3c(=O)n2C)cn1` (stereo not shown) [Example 15, 2-((1-(3-(6-methoxypyridin-3-yl)-2,7-dimethyl-1-oxo-1,2-dihydroisoquinolin-5-yl)ethyl)amino)benzoic acid], in experiment [1], the IC50 stood at 217 nM and the “Selectivity: SK-BR-3/T-47D (p-AKT)” value amounted to 38.5. For the same compound, in experiment [2], the IC50 turned out to be 858 nM and the “selectivity: WT/H1047R” value was 8.0.
For `Cc1cc(C(C)Nc2ccccc2C(=O)O)c2cc(-c3cnn(-c4ccc(C(N)=O)cn4)c3)n(C)c(=O)c2c1` (stereo not shown) [Example 16, 2-((1-(3-(1-(5-carbamoylpyridin-2-yl)-1H-pyrazol-4-yl)-2,7-dimethyl-1-oxo-1,2-dihydroisoquinolin-5-yl)ethyl)amino)benzoic acid], in experiment [1], the IC50 worked out at 1580 nM and the “Selectivity: SK-BR-3/T-47D (p-AKT)” value is recorded as >6.3. Moreover, in experiment [2], the IC50 was 240 nM and the “selectivity: WT/H1047R” value is 15.3.
On to `Cc1cc(C(C)Nc2ccccc2C(=O)O)c2cc(-c3nc4ccccc4s3)n(C)c(=O)c2c1` (stereo not shown) [Example 17, 2-((1-(3-(benzo[d]thiazol-2-yl)-2,7-dimethyl-1-oxo-1,2-dihydroisoquinolin-5-yl)ethyl)amino)benzoic acid], for which, in experiment [1], the IC50 amounted to 58.8 nM and the “Selectivity: SK-BR-3/T-47D (p-AKT)” value is listed as 13.5. Besides, in experiment [2], the IC50 stood at 255 nM and the “selectivity: WT/H1047R” value is 30.5.
